Values after ≈ are worked out from the molar mass of the structure shown. One block for each compound: values may come before it.
Tests used:
[1] = test system: Trypanosoma cruzi; test: Antitrypanosomal activity against trypomastigotes of Trypanosoma cruzi Tulahuen C2C4 containing lacZ gene in rat L6 cells after 4 days; type: functional, organism-based; details: L6, 96 h
[2] = test system: Trypanosoma cruzi; test: Antitrypanosomal activity against Trypanosoma cruzi amastigotes at 250 uM
[3] = test system: Serratia marcescens; test: Antibacterial activity against Serratia marcescens after 24 hrs by agar dilution method; type: functional
[4] = test system: Salmonella typhimurium; test: Antibacterial activity against Salmonella Typhimurium after 24 hrs by agar dilution method; type: functional, Salmonella enterica subsp. enterica serovar Typhimurium; details: Salmonella enterica
[5] = test system: Escherichia coli; test: Antibacterial activity against Escherichia coli after 24 hrs by agar dilution method; type: functional
[6] = test system: Shigella flexneri; test: Antibacterial activity against Shigella flexneri after 24 hrs by agar dilution method; type: functional
[7] = test system: Proteus vulgaris; test: Antibacterial activity against Proteus vulgaris after 24 hrs by agar dilution method; type: functional
[8] = test system: Shigella sonnei; test: Antibacterial activity against Shigella sonnei after 24 hrs by agar dilution method; type: functional
[9] = test system: Shigella boydii; test: Antibacterial activity against Shigella boydii after 24 hrs by agar dilution method; type: functional
[10] = test system: Pseudomonas aeruginosa; test: Antibacterial activity against Pseudomonas aeruginosa after 24 hrs by agar dilution method; type: functional
[11] = test system: Salmonella enterica subsp. enterica; test: Antibacterial activity against Salmonella enteritidis after 24 hrs by agar dilution method; type: functional, Salmonella enterica subsp. enterica serovar Enteritidis
[12] = test system: Proteus mirabilis; test: Antibacterial activity against Proteus mirabilis after 24 hrs by agar dilution method; type: functional
[13] = test system: Streptococcus pneumoniae; test: Antibacterial activity against Streptococcus pneumoniae after 24 hrs by agar dilution method; type: functional
[14] = test system: Staphylococcus aureus; test: Antibacterial activity against Staphylococcus aureus after 24 hrs by agar dilution method; type: functional
[15] = test system: Aeromonas hydrophila; test: Antibacterial activity against Aeromonas hydrophila after 24 hrs by agar dilution method; type: functional
[16] = test system: Citrobacter freundii; test: Antibacterial activity against Citrobacter freundii after 24 hrs by agar dilution method; type: functional
[17] = test system: Klebsiella pneumoniae; test: Antibacterial activity against Klebsiella pneumoniae after 24 hrs by agar dilution method; type: functional
[18] = test system: Staphylococcus epidermidis; test: Antibacterial activity against Staphylococcus epidermidis after 24 hrs by agar dilution method; type: functional
[19] = test system: Staphylococcus; test: Antibacterial activity against Staphylococcus albus after 24 hrs by agar dilution method; type: functional
[20] = test system: Streptococcus; test: Antibacterial activity against gamma-streptococcus after 24 hrs by agar dilution method; type: functional
[21] = test system: Enterococcus faecalis; test: Antibacterial activity against Enterococcus faecalis after 24 hrs by agar dilution method; type: functional
[22] = test system: Morganella morganii; test: Antibacterial activity against Morganella morganii after 24 hrs by agar dilution method; type: functional

IC50 [1]: 1.7 µg/mL (≈ 3.8 µM)
SMILES: CCOC(=O)c1cn(CC)c2c(Oc3ccccc3)c(Oc3ccccc3)c(F)cc2c1=O

SMILES: O=C(O)c1cn(C2CC2)c2cc(N3CCNCC3)c(F)cc2c1=O [CIPROFLOXACIN]
Activity [2]: 26%

IC50 [1]: > 90 µg/mL
SMILES: CCn1cc(C(=O)O)c(=O)c2cc(Oc3ccc(C)cc3)c(Oc3ccc(C)cc3)c(Oc3ccc(C)cc3)c21

IC50 [1]: 19.4 µg/mL (≈ 43.4 µM)
SMILES: CCn1cc(C(=O)O)c(=O)c2cc(F)c(Oc3ccc(C)cc3)c(Oc3ccc(C)cc3)c21

IC50 [1]: 17.8 µg/mL (≈ 38.4 µM)
SMILES: O=C(O)c1cn(C2CC2)c2c(Sc3ccccc3)c(Sc3ccccc3)c(F)cc2c1=O

IC50 [1]: 4 µg/mL (≈ 9.56 µM)
SMILES: CCn1cc(C(N)=O)c(=O)c2cc(F)c(Oc3ccccc3)c(Oc3ccccc3)c21

MIC [3]: > 25 µg/mL | MIC [4]: > 25 µg/mL | MIC [5]: > 25 µg/mL | MIC [6]: > 25 µg/mL | MIC [7]: > 25 µg/mL | MIC [8]: 12.5 µg/mL (≈ 34.6 µM) | MIC [9]: 12.5 µg/mL (≈ 34.6 µM) | MIC [10]: > 25 µg/mL | MIC [11]: > 25 µg/mL | MIC [12]: > 25 µg/mL | MIC [13]: 0.78 µg/mL (≈ 2.16 µM) | MIC [14]: 3.13 µg/mL (≈ 8.66 µM) | MIC [15]: > 25 µg/mL | MIC [16]: 12.5 µg/mL (≈ 34.6 µM) | MIC [17]: 12.5 µg/mL (≈ 34.6 µM) | MIC [18]: 3.13 µg/mL (≈ 8.66 µM) | MIC [19]: > 25 µg/mL | MIC [20]: > 25 µg/mL | MIC [21]: > 25 µg/mL | IC50 [1]: 34.6 µg/mL (≈ 95.7 µM) | MIC [22]: > 25 µg/mL
SMILES: CCn1cc(C(=O)O)c(=O)c2cc(F)c(Sc3ccccc3)c(F)c21

MIC [3]: 0.195 µg/mL (≈ 0.555 µM) | MIC [4]: 0.195 µg/mL (≈ 0.555 µM) | MIC [5]: 0.098 µg/mL (≈ 0.279 µM) | MIC [6]: 0.78 µg/mL (≈ 2.22 µM) | MIC [7]: 0.78 µg/mL (≈ 2.22 µM) | MIC [8]: 0.098 µg/mL (≈ 0.279 µM) | MIC [9]: 0.098 µg/mL (≈ 0.279 µM) | MIC [10]: 3.13 µg/mL (≈ 8.91 µM) | MIC [11]: 0.098 µg/mL (≈ 0.279 µM) | MIC [12]: 0.39 µg/mL (≈ 1.11 µM) | MIC [13]: 0.195 µg/mL (≈ 0.555 µM) | MIC [14]: 0.78 µg/mL (≈ 2.22 µM) | MIC [15]: 6.25 µg/mL (≈ 17.8 µM) | MIC [16]: 0.098 µg/mL (≈ 0.279 µM) | MIC [17]: 0.098 µg/mL (≈ 0.279 µM) | MIC [18]: 0.78 µg/mL (≈ 2.22 µM) | MIC [19]: 3.13 µg/mL (≈ 8.91 µM) | MIC [20]: 6.25 µg/mL (≈ 17.8 µM) | MIC [21]: 25 µg/mL (≈ 71.2 µM) | MIC [22]: 0.195 µg/mL (≈ 0.555 µM)
SMILES: CCn1cc(C(=O)O)c(=O)c2cc(F)c(N3CCNC(C)C3)c(F)c21 (stereo not given) [LOMEFLOXACIN]

IC50 [1]: 3.8 µg/mL (≈ 8.23 µM)
SMILES: CCn1cc(C(=O)OC)c(=O)c2cc(F)c(OCc3ccccc3)c(OCc3ccccc3)c21

IC50 [1]: 2.4 µg/mL (≈ 5.15 µM)
SMILES: CCn1cc(C(=O)OC)c(=O)c2cc(F)c(Sc3ccccc3)c(Sc3ccccc3)c21

MIC [3]: 6.25 µg/mL (≈ 16.8 µM) | MIC [4]: 1.56 µg/mL (≈ 4.2 µM) | MIC [5]: 1.56 µg/mL (≈ 4.2 µM) | MIC [6]: > 25 µg/mL | MIC [7]: 6.25 µg/mL (≈ 16.8 µM) | MIC [8]: 1.56 µg/mL (≈ 4.2 µM) | MIC [9]: 1.56 µg/mL (≈ 4.2 µM) | MIC [10]: 6.25 µg/mL (≈ 16.8 µM) | MIC [11]: 3.13 µg/mL (≈ 8.43 µM) | MIC [12]: 6.25 µg/mL (≈ 16.8 µM) | MIC [13]: 1.56 µg/mL (≈ 4.2 µM) | MIC [14]: 1.56 µg/mL (≈ 4.2 µM) | MIC [15]: 3.13 µg/mL (≈ 8.43 µM) | MIC [16]: 1.56 µg/mL (≈ 4.2 µM) | MIC [17]: 0.78 µg/mL (≈ 2.1 µM) | MIC [18]: 1.56 µg/mL (≈ 4.2 µM) | MIC [19]: 6.25 µg/mL (≈ 16.8 µM) | MIC [20]: 6.25 µg/mL (≈ 16.8 µM) | MIC [21]: 12.5 µg/mL (≈ 33.7 µM) | IC50 [1]: > 90 µg/mL | MIC [22]: 6.25 µg/mL (≈ 16.8 µM)
SMILES: O=C(O)c1cn(C2CC2)c2c(F)c(OCc3ccccc3)c(F)cc2c1=O

IC50 [1]: 6.2 µg/mL (≈ 13.9 µM)
SMILES: C=Cn1cc(C(=O)O)c(=O)c2cc(F)c(OCc3ccccc3)c(OCc3ccccc3)c21

IC50 [1]: 0.83 µg/mL (≈ 3.19 µM)
SMILES: O=C(Cn1ccnc1[N+](=O)[O-])NCc1ccccc1 [BENZNIDAZOLE]

IC50 [1]: 12.7 µg/mL (≈ 22.8 µM)
SMILES: CCn1cc(C(=O)O)c(=O)c2cc(F)c(Oc3ccc(Cl)cc3Cl)c(Oc3ccc(Cl)cc3Cl)c21

IC50 [1]: 1.7 µg/mL (≈ 3.58 µM)
SMILES: CCOC(=O)c1cn(CC)c2c(OCc3ccccc3)c(OCc3ccccc3)c(F)cc2c1=O

IC50 [1]: 52.7 µg/mL (≈ 110 µM)
SMILES: CCn1cc(C(=O)O)c(=O)c2cc(F)c(Sc3ccc(C)cc3)c(Sc3ccc(C)cc3)c21
